Reference: publication PMC6386944, “Design and Synthesis of A PD-1 Binding Peptide and Evaluation of Its Anti-Tumor Activity” (International Journal of Molecular Sciences, 2019)
Bridge positions count the residues as written; N and C are the ends. Peptide text beside a SMILES is read from it. * marks the point of attachment. FITC = O=C1OC2(c3ccc(O)cc3Oc3cc(O)ccc32)c2ccc(NC(=S)*)cc21; Ahx = NCCCCCC(=O)O

System: TE-13 cells co-cultured with T cells
Experiment: Lactate dehydrogenase (LDH) release assay, T cell cytotoxicity
Type: cell-based, human
Conditions: TE-13 and T cells at 16:1; FITC-YT-16 1, 2, 4, 8 and 16 µM; overnight, 37 °C; A490; triplicate wells
From the text: The experiment in Figure 10 mainly evaluated the activation status of CD4^+ T cells by detection of IL-2 and INF-γ levels in the culture supernatant. The test in Figure 11 mainly evaluated the enhanced cytotoxicity by CD8^+ T cells by detection of lactate dehydrogenase (LDH) release in the culture supernatant. Activated CD8 T cells can recognize tumor cells and kill tumor cells by means of degranulation and Fas/FasL recognition. After the tumor cells were damaged, a cytoplasmic enzyme with name lactate dehydrogenase (LDH) is released from damaged cells into the supernatant and by measuring the levels of LDH, we can evaluate the cytotoxic effect of CD8 T cells. […]
Effect of FITC-YT-16 peptide on T cell cytotoxicity was detected by measuring the release of a cytoplasmic enzyme, lactate dehydrogenase (LDH), from damaged cells into the supernatant by using a colorimetric assay according to cytotoxicity detection kit (Cayman Chemical, Ann Arbor, MI, USA). […] The supernatant was transferred to a new 96-well assay plate and the LDH reaction solution was added to each well and incubated for 30 min at 37 °C before the absorbance was read at 490 nm. […] Triplicate wells were averaged and the percentage of specific lysis was calculated by the following equation: % Cytotoxicity=[Experimental value A490−Spontaneous release A490/Maximum release A490−Spontaneous release A490]∗100

## CC[C@H](C)[C@@H]1NC(=O)[C@H](CCSC)NC(=O)[C@@H](NC(=O)[C@H](CCCNC(=N)N)NC(=O)[C@H](Cc2ccc(O)cc2)NC(=O)CCCCCNC(=S)Nc2ccc3c(c2)C(=O)OC32c3ccc(O)cc3Oc3cc(O)ccc32)CSSC[C@@H](C(=O)N[C@H](C(=O)N[C@H](C(=O)O)[C@@H](C)O)[C@@H](C)CC)NC(=O)[C@H](CCCCN)NC(=O)[C@H](Cc2ccc(O)cc2)NC(=O)[C@H](CC(=O)O)NC(=O)[C@H](C)NC(=O)CNC(=O)CNC(=O)[C@H](Cc2ccc(O)cc2)NC(=O)[C@H](CO)NC1=O [FITC-YT-16] ({FITC-Ahx}-YRCMISYGGADYKCIT-OH; disulfide 3-14)
  T cell cytotoxicity, concentration dependence: dose-dependently increased
